{"source": "patent US6852700B1", "about": "“Colostrinin, and uses thereof” (Ludwig Hirzfeld Institute of Immunology and Experimental …, priority 1996, dated 2005)", "key": {"[1]": {"system": "lymphocytes present in whole blood", "test": "Induction of cytokines in vitro in whole blood cultures", "format": "cell-based, human", "method": "Induction of cytokines by the polypeptide Colostrinin™ in vitro on blood taken from healthy and sick volunteers taking the pharmaceutical in the form stated in Example III, in cyclic treatment, is carried out as follows.\nWhole blood, containing 10 units per 1 ml of heparin without preservatives is diluted at 1:10 ratio in RPMI 1640 culture medium. Incubation is conducted in the same culture medium without inducers (negative control), or in the presence of 1-100 μg/ml of the polypeptide Colostrinin™ or in the presence of 2 μg/ml blood of phytohaemagglutinin (PHA) and 2 μg/ml blood of lipopolysaccharide (LPS), at a temperature of 37° C., in an atmosphere of 5% carbon dioxide, for 20 hours. Samples with mixture of PHA and LPS are the positive control, as they can stimulate the maximum quantities of cytokines."}, "mice": {"system": "mice", "test": "Toxicological studies on mice", "format": "in vivo", "settings": "both after oral and parenteral administration"}, "human volunteers": {"system": "human volunteers", "settings": "tablets for sucking, at least 25 μg, at least one daily, about 3 weeks"}, "[2]": {"system": "mice exposed to gamma radiation", "test": "Radiation sickness in mice exposed to gamma radiation", "format": "in vivo"}, "[3]": {"system": "patients with Alzheimer's disease", "test": "Treatment of volunteer patients with Alzheimer's disease with tablets for sucking", "format": "in vivo, human", "method": "(§1) The method of treatment of disorders of the central nervous system was investigated on a group of volunteer patients in the early and moderate stages of Alzheimer's disease. The dosage units were administered in the form of tablets for sucking, between meals, containing 0.00015 g of Colostrinin™ defined in Examples I and III. Firstly, 1 tablet was used daily for a period of 3 weeks, then therapy was interrupted for 2-4 weeks and treatment was repeated, administering 2 tablets daily for 3 weeks. […] This is manifested by an inability to synthesise IFN and also tumour necrosis factor TNF-α. This phenomenon permits quantitative measurements of the action of active agent.\nThis was followed by a 3-week pause in treatment (during the pause, the tolerance to the inducer returns to normal). Blood samples for investigating stimulation of IFN-γ by Colostrinin™ and control inducers (PHA-10 μg/ml) were taken every week. The method of performing the tests for induction of cytokines and their quantitative determination were described in previous sections.\nas §1, with “early” for “early and moderate”, “sucking” for “sucking,”, “NP” for “Colostrinin™”, “Example II.” for “Examples I and III.”, “3” for “2-4”"}, "sarcoma 180": {"system": "sarcoma 180", "test": "Growth of sarcoma 180 in mice", "format": "in vivo", "settings": "intraperitoneal administration in mice"}, "[4]": {"system": "lymphocytes isolated from cord blood (CBL)", "test": "Induction of cytokines in a culture of lymphocytes isolated from cord blood (CBL)", "format": "cell-based, human", "settings": "20 hours", "method": "Cord blood obtained from the Gynaecological-Obstetric Department of the Specialist District Hospital in Wroclaw. Induction of cytokines by Colostrinin™ in vitro in lymphocytes of cord blood taken 4-6 hours after parturition is effected in the following way.\nThe lymphocytes are isolated using a Ficoll-Paque® gradient containing 5.7 g of the component Ficoll 400 and 9.0 g of the component Diatrizoate Sodium per 100 ml. The lymphocytes isolated are suspended in RPMI-1640 culture medium at density of 2×10^6 lymphocyte cells per 1 ml of culture medium. Colostrinin™ at concentration of 1-20 μg/ml or phytohaemagglutinin at concentration of 10 μg/ml is added to the lymphocyte suspension. The culture is incubated for 20 hours at a temperature of 37° C. Then the level of cytokines in the culture fluids is determined by biological methods."}, "mice of the NZB line": {"system": "mice of the NZB line", "test": "Haemolytic anaemia in mice of the NZB line", "format": "in vivo", "settings": "intraperitoneal administration"}, "[5]": {"settings": "donor four breast cancer, dose 10 μg/ml"}, "[6]": {"settings": "donor four breast cancer, dose 100 μg/ml"}, "[7]": {"settings": "donor one. Alzheimer's disease, dose 10 μg/ml"}, "[8]": {"settings": "donor one. Alzheimer's disease, dose 100 μg/ml"}, "[9]": {"settings": "donor six healthy young soldier, dose 1 μg/ml"}, "[10]": {"settings": "donor six healthy young soldier, dose 10 μg/ml"}, "[11]": {"settings": "donor six healthy young soldier, dose 100 μg/ml"}, "[12]": {"settings": "donor three schizophrenia, dose 10 μg/ml"}, "[13]": {"settings": "donor three schizophrenia, dose 100 μg/ml"}, "[14]": {"settings": "donor two healthy young soldier, dose 1 μg/ml"}, "[15]": {"settings": "donor two healthy young soldier, dose 10 μg/ml"}, "[16]": {"settings": "donor two healthy young soldier, dose 100 μg/ml"}, "[17]": {"settings": "healthy volunteers, inducer dose 10 μg/ml, 20 hours"}, "[18]": {"settings": "healthy volunteers, inducer dose 100 μg/ml, 20 hours"}, "[19]": {"settings": "patients with Alzheimer's disease, inducer dose 10 μg/ml"}, "[20]": {"settings": "patients with Alzheimer's disease, inducer dose 100 μg/ml"}, "[21]": {"settings": "early and moderate Alzheimer's disease, 1 tablet daily 3 weeks, pause 2-4 weeks, 2 tablets daily 3 weeks"}, "[22]": {"settings": "early Alzheimer's disease, NP tablets, 1 daily 3 weeks, pause 3 weeks, 2 daily 3 weeks"}}, "note": "Ends that are not written are not given here."}
{"substance": "Colostrinin ™", "values": [{"measurement": "production of cytokines, dose dependence", "setting": "[1]; concentrations of 1-100 μg/ml, whole blood", "value": "stimulates the production of cytokines in a dose-dependent fashion"}, {"measurement": "production of cytokines (IFN-γ, TNF-α, IL-6, IL-10, growth factors)", "setting": "[1]; cultures of lymphocytes of human peripheral blood (including cord blood)", "value": "stimulates the production of cytokines"}, {"measurement": "Titres of IFN determined by Antivirus biotest", "setting": "[1]; [5]", "value": 50, "unit": "units/ml"}, {"measurement": "Titres of IFN determined by ELISA IFN-γ", "setting": "[1]; [5]", "value": 307, "unit": "pg/mL"}, {"measurement": "Titres of IFN determined by Antivirus biotest", "setting": "[1]; [6]", "value": 70, "unit": "units/ml"}, {"measurement": "Titres of IFN determined by ELISA IFN-γ", "setting": "[1]; [6]", "value": 523, "unit": "pg/mL"}, {"measurement": "Titres of IFN determined by Antivirus biotest", "setting": "[1]; [7]", "value": 20, "unit": "units/ml"}, {"measurement": "Titres of IFN determined by ELISA IFN-γ", "setting": "[1]; [7]", "value": 427, "unit": "pg/mL"}, {"measurement": "Titres of IFN determined by Antivirus biotest", "setting": "[1]; [8]", "value": 40, "unit": "units/ml"}, {"measurement": "Titres of IFN determined by ELISA IFN-γ", "setting": "[1]; [8]", "value": 400, "unit": "pg/mL"}, {"measurement": "Titres of IFN determined by Antivirus biotest", "setting": "[1]; [9]", "value": 100, "unit": "units/ml"}, {"measurement": "Titres of IFN determined by ELISA IFN-γ", "setting": "[1]; [9]", "value": 2690, "unit": "pg/mL"}, {"measurement": "Titres of IFN determined by Antivirus biotest", "setting": "[1]; [10]", "value": 200, "unit": "units/ml"}, {"measurement": "Titres of IFN determined by ELISA IFN-γ", "setting": "[1]; [10]", "value": 3778, "unit": "pg/mL"}, {"measurement": "Titres of IFN determined by Antivirus biotest", "setting": "[1]; [11]", "value": 600, "unit": "units/ml"}, {"measurement": "Titres of IFN determined by ELISA IFN-γ", "setting": "[1]; [11]", "value": 3941, "unit": "pg/mL"}, {"measurement": "Titres of IFN determined by Antivirus biotest", "setting": "[1]; [12]", "value": 6, "unit": "units/ml"}, {"measurement": "Titres of IFN determined by ELISA IFN-γ", "setting": "[1]; [12]", "value": 29, "unit": "pg/mL"}, {"measurement": "Titres of IFN determined by Antivirus biotest", "setting": "[1]; [13]", "value": 6, "unit": "units/ml"}, {"measurement": "Titres of IFN determined by ELISA IFN-γ", "setting": "[1]; [13]", "value": 29, "unit": "pg/mL"}, {"measurement": "Titres of IFN determined by Antivirus biotest", "setting": "[1]; [14]", "value": 100, "unit": "units/ml"}, {"measurement": "Titres of IFN determined by ELISA IFN-γ", "setting": "[1]; [14]", "value": 1413, "unit": "pg/mL"}, {"measurement": "Titres of IFN determined by Antivirus biotest", "setting": "[1]; [15]", "value": 300, "unit": "units/ml"}, {"measurement": "Titres of IFN determined by ELISA IFN-γ", "setting": "[1]; [15]", "value": 3402, "unit": "pg/mL"}, {"measurement": "Titres of IFN determined by Antivirus biotest", "setting": "[1]; [16]", "value": 300, "unit": "units/ml"}, {"measurement": "Titres of IFN determined by ELISA IFN-γ", "setting": "[1]; [16]", "value": 2920, "unit": "pg/mL"}, {"measurement": "Cytokines IFN", "setting": "[1]; [17]", "value": "50 ± 59", "unit": "unit/ml"}, {"measurement": "Cytokines TNF", "setting": "[1]; [17]", "value": "316 ± 371", "unit": "unit/ml"}, {"measurement": "Cytokines IFN", "setting": "[1]; [18]", "value": "344 ± 254", "unit": "unit/ml"}, {"measurement": "Cytokines TNF", "setting": "[1]; [18]", "value": "670 ± 560", "unit": "unit/ml"}, {"measurement": "Cytokines IFN", "setting": "[1]; [19]", "value": "15 ± 9", "unit": "unit/ml"}, {"measurement": "Cytokines TNF", "setting": "[1]; [19]", "value": "182 ± 158", "unit": "unit/ml"}, {"measurement": "Cytokines IFN", "setting": "[1]; [20]", "value": "21 ± 14", "unit": "unit/ml"}, {"measurement": "Cytokines TNF", "setting": "[1]; [20]", "value": "249 ± 187", "unit": "unit/ml"}, {"measurement": "LD50", "setting": "mice", "value": "above 1.25 g/kg of body weight"}, {"measurement": "reactivity to induction of IFN-γ and TNF-α", "setting": "human volunteers", "value": "state of hyporeactivity"}, {"measurement": "protection against radiation sickness", "setting": "[2]", "value": "protects the animals against radiation sickness"}, {"measurement": "clinical effect in patients with Alzheimer's disease", "setting": "[3]; [21]", "value": "improvement of contact and uplift of mood were observed"}, {"measurement": "reactivity to induction of IFN and TNF-α after treatment", "setting": "[3]; [21]", "value": "induced a state of hyporeactivity or tolerance"}, {"measurement": "time course of hyporeactivity to induction of IFN-γ (FIG. 1)", "setting": "[3]; patient five, 100 μg tablet every other day for three weeks, then 3-week pause", "value": "hyporeactivity appears as early as during the first week"}, {"measurement": "growth of sarcoma 180", "setting": "sarcoma 180", "value": "inhibit the growth of sarcoma 180"}, {"measurement": "Cytokines IFN", "setting": "[4]; dose 1 μg/ml", "value": "38 ± 66", "unit": "unit/ml"}, {"measurement": "Cytokines TNF", "setting": "[4]; dose 1 μg/ml", "value": "16 ± 17", "unit": "unit/ml"}, {"measurement": "Cytokines IFN", "setting": "[4]; dose 10 μg/ml", "value": "78 ± 80", "unit": "unit/ml"}, {"measurement": "Cytokines TNF", "setting": "[4]; dose 10 μg/ml", "value": "37 ± 35", "unit": "unit/ml"}, {"measurement": "Cytokines IFN", "setting": "[4]; dose 20 μg/ml", "value": "89 ± 79", "unit": "unit/ml"}, {"measurement": "Cytokines TNF", "setting": "[4]; dose 20 μg/ml", "value": "59 ± 41", "unit": "unit/ml"}, {"measurement": "development of haemolytic anaemia", "setting": "mice of the NZB line", "value": "inhibits the development of haemolytic anaemia"}]}
{"substance": "VESYVPLFP [NP, nonapeptide fragment of Colostrinin obtained by chymotrypsin digestion or chemical synthesis]", "values": [{"measurement": "clinical effect in patients with Alzheimer's disease", "setting": "[3]; [22]", "value": "improvement of contact and uplift of mood were observed"}, {"measurement": "reactivity to induction of IFN and TNF-α after treatment", "setting": "[3]; [22]", "value": "induced a state of hyporeactivity or tolerance"}]}
{"substance": "phytohaemagglutinin [PHA, reference compound]", "values": [{"measurement": "Cytokines IFN", "setting": "[4]; PHA dose 10 μg/ml", "value": "75 ± 66", "unit": "unit/ml"}, {"measurement": "Cytokines TNF", "setting": "[4]; PHA dose 10 μg/ml", "value": "83 ± 69", "unit": "unit/ml"}]}
